Reference: patent US6964870B2, “Enhanced selection of genetically modified pine embryogenic tissue” (MeadWestvaco Corporation, priority 2000, dated 2005)

System: Loblolly pine (Pinus taeda) embryogenic cell lines
Assay: Biolistic transformation and selection of transformed sublines with or without ABA in the selection medium (Example 1)
Assay type: cell-based
Source text: To prepare for gene transfer, a sterile fabric support (in this example PECAP® fabric support, commercially available from SEFAR Inc.) was placed in a sterile Buchner funnel and one to five milliliters of embryogenic suspension was pipetted onto the fabric support such that the embryogenic tissue was evenly distributed over the surface. The liquid medium was suctioned from the tissues using a mild vacuum. The fabric support with embryogenic tissue was removed from the Buchner funnel and placed on a GELRITE® gelling agent solidified DCR3 preparation medium (Table 2) in 100×25 mm plastic petri dishes. Dishes were incubated in a dark growth chamber at 23°±2° C. for about 24-48 hours.
DNA was transferred into the tissues by the biolistic method described in U.S. patent application Ser. No. 09/318,136 filed on 25 May 1999 and New Zealand Patent No. 336149, each incorporated herein by reference, using the PDS-1000/He BIOLISTICS® Particle Delivery System (available from Bio-Rad Laboratories). The DNAs of interest, here containing the visual marker gene uidA and the selection gene nptII, were precipitated onto the surface of gold microparticles, which were subsequently accelerated toward embryogenic tissue to penetrate the cell walls. Once inside the cells, DNA is released from the carrier particles and integrated randomly into the chromosomes.
The petri dishes with the fabric support and embryonic tissues were then placed into the interior of the PDS 1000/He BIOLISTICS® device and vacuum applied to a level of 28 inches Hg. The gold particles carrying the DNA were accelerated toward the embryogenic tissue following a helium build-up and bursting regulated by a 1550 psi rupture disk. In the PDS-1000/He BIOLISTICS® device the gap between the rupture disk and the macrocarrier (gap distance) was five mm and the macrocarrier travel distance was 13 mm. Following DNA transfer the petri dishes containing the fabric support and tissues were incubated in a dark growth chamber at 23°±2° C. for about 24 hours. The tissues and fabric support were transferred to semi-solid maintenance medium, DCR1 (Table 2) to recover from carrier particle bombardment and incubated in a dark growth chamber at 23°±2° C. for a period of about seven days. The tissues and fabric support were transferred to a selection medium, semi-solid maintenance medium DCR1 containing a level of selection agent inhibitory to the growth of non-transformed cells. In this and subsequent examples the selection agent used was GENETICIN® antibiotic at 15-30 mg/l. The plates were incubated in a dark growth chamber at 23°±2° C. for about six to twelve weeks with the fabric supports containing the tissues being transferred to the same fresh culture medium every 2-3 weeks. […]

CC1=CC(=O)CC(C)(C)[C@@]1(O)/C=C/C(C)=C\C(=O)O [ABA, abscisic acid]
stable transformants after nine weeks of selection (10 mg/L ABA in medium only during the first three weeks of selection): Stable transformants were detected
stable transformants after nine weeks of selection (ABA in selection medium throughout the entire nine-week selection period): more transformants were detected
transformants from a cell line of an elite family, progeny of P. taeda elite line 7-56 (ABA in the selection medium vs none): observed only on treatments that had contained ABA in the selection medium
number of transformants obtained (ABA present during the entire period of transfer, all lines tested): equal to or greater than the number obtained for any other treatment
